Reference: patent US5948792A, “Fluorine-containing 1,4-disubstituted piperidine derivatives” (Banyu Pharmaceutical Co., Ltd., priority 1996, dated 1999)

What was measured:
Muscarinic M3 Receptor [1] = biological target: T1, Muscarinic M3 Receptor (Rattus norvegicus, UniProt P08483); test: Bronchodilation in rats (i.v.), inhibition of acetylcholine-induced increase in airway resistance; format: in vivo; details: iv, 5 min, acetylcholine 50 μg/kg i.v. 5 minutes after test compound, read-out: Inhibition of Airway Contraction ED50 iv
T1 construct: male rats of the Sprague-Dawley strain; from tissue; host or cells: airways of living male Sprague-Dawley rats (in vivo)
Protocol: (§1) Tests for Antagonism Against Muscarinic M3 Receptor (in vivo)
1-A) Tests for Bronchodilation in Rats (i.v.).
Eight- to eleven-weeks-old male rats of the Sprague-Dawley strain, weighing 380-420 g, were anesthetized with urethane (750 mg/kg. i.p.) and α-chloralose (37.5 mg/kg, i.p.). The bronchus of each rat was intubated, and the right jugular vein was cannulated for drug administration. […] To evoke an increase in airway resistance, acetylcholine (50 μg/kg, i.v.) was administered to the animals. The acetylcholine-induced airway resistance increase was measured 5 minutes before and 5 minutes after administration of test compound, and the ratio of the airway resistance of the latter to the former was calculated. In controls, isotonic sodium chloride solution was used in place of the test compounds and otherwise identical procedures were repeated, the calculated ratio being set to be 100%.

M2 receptor = biological target: T2, M2 receptor (Rattus norvegicus, UniProt P10980); test: Antagonism to M2 receptor in an isolated rat right atrium (in vitro); format: cell-based; details: carbachol-induced decrease in heart rate
T2 construct: the right atrium was isolated; from tissue; host or cells: isolated right atrium of male SD strain rat
T2 sequence (P10980 1-466): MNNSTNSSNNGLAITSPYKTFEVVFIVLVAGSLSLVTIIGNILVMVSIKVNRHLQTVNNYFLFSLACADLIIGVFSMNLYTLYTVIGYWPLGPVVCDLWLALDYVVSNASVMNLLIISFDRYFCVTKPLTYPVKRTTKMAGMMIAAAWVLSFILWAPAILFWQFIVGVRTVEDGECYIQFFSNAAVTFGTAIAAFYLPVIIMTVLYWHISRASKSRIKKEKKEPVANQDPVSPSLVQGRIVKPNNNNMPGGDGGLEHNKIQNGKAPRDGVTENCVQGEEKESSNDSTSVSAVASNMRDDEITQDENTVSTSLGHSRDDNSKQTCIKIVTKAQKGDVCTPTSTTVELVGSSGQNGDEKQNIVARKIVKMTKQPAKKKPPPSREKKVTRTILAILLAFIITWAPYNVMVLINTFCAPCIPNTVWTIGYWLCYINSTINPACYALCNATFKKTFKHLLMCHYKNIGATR
Protocol: Tests for Antagonism to Muscarinic Receptors (in vitro)
1) Tests for Antagonism to M2 receptor in an Isolated Rat Right Atrium
These tests were performed according to a conventional method. A male SD strain rat (weighing 300-500 g) was killed by exsanguination, and the right atrium was isolated. This preparation was isometrically suspended in organ bath filled with 20 ml of Krebs-Henseleit solution (gassed with 95% O2 -5% CO2 and kept at 32° C.) with an initial tension of 0.5 g. The heart rate was recorded with a heart rate counter. After the preparation was equilibrated for 30 minutes, carbachol (10^-9 to 10^-6 M) was cumulatively administered in three-fold increasing doses. Thus, a decrease in heart rate was measured to obtain a dose-response curve for the control experiment. After the preparation was washed with fresh solution to restore the heart rate, a test compound was administered thereto. Ten minutes later, carbachol was cumulatively administered again. Responses to carbachol were expressed as percentages based on the heart rate before administration of carbachol as 100%. The antagonistic potency (KB value) of the test compound was determined from the degree of shift of the dose-response curve obtained by treatment with individual test compound of the present invention.

Muscarinic M3 Receptor [2] = test: Bronchodilation in dogs (p.o.), methacholine provocation test; format: in vivo, dog; details: beagle dogs, 1 mg/kg p.o., 4 hours after administration
Protocol: as §1
2) Tests for Bronchodilation in Dogs (p.o.)
Twelve- to twenty-four-months-old male beagle dogs (weighing 10-15 kg) were anesthetized with pentobarbital (30 mg/kg, i.v.) and intubated in their bronchus. Their airway sensitivity to inhaled methacholine were measured at least twice at two-weeks interval, and the dogs showing a reproducible methacholine reaction threshold values^1) ware selected. To those dogs whose methacholine reaction threshold value had been confirmed, the test compounds were orally administered (1 mg/kg). Four hours after the administration, the methacholine provocation test was conducted, and then the methacholine reaction threshold value^2) after administration of the test compound was obtained.
The bronchodilator activity of the test compound was determined following equation: [formula]
The methacholine provocation test was conducted using Astograph TCK-6100H Model (Chest). Methacholine chloride was used as bronchoconstritor, which was diluted with isotonic sodium chloride solution in 10-grade concentration levels starting from 40,000 μg/ml, as 20,000, 10,000, 5,000, 2,500, 1,250, 625, 312.5, 156 and 78 μg/ml. These methacholine aerosols were inhaled to the test animal each for 1 min, starting from the lowest concentration level, and respiration resistance was continuously recorded. The concentration level at which the respiration resistance reached twice the initial value was recorded as the methacholine threshold value.

Muscarinic M3 receptor [3] = biological target: T3, Muscarinic M3 receptor (Homo sapiens, UniProt P20309); test: Inhibition of binding of [3H]-N-methylscopolamine to muscarinic M3 receptor
T3 construct: purchased Receptor Biology, Inc; host or cells: CHO cells (membranes)
Protocol: Tests on Inhibition of Binding to Muscarinic Receptors
These tests were performed according to a modification of the method of Hargreaves et al. (Br. J. Pharmacol. 107: 494-501, 1992). Membranes from CHO cells expressing cloned human m1-m5 (Receptor Biology, Inc.) were incubated with 0.2 nM [^3 H]-N-methylscopolamine and each a compound of the present invention to be tested in 0.5 ml of 50 mM Tris-HCl-10 mM MgCl2 -1 mM EDTA (pH 7.4) for 2 hours at 25° C. Free and membrane-bound [^3 H]-N-methylscopolamine were separated by filtration over glass filters (UniFilter-GF/C; Packard Instruments Co., Inc.) using cell harvester (Filtermate™ 196; Packard Instruments Co., Inc.). Then the filter was washed four times with 1 ml of ice-cold Tris-HCl (pH 7.4) and dried at 50° C. After adding a scintillator (Microscinti 0; Packard Instruments Co., Inc.), the radioactivity was counted by a liquid scintillation counter (TopCount™; Packard Instruments Co., Inc.). Non-specific binding was measured in the presence of 1 μM N-methylscopolamine.

T1 sequence (P08483 whole entry): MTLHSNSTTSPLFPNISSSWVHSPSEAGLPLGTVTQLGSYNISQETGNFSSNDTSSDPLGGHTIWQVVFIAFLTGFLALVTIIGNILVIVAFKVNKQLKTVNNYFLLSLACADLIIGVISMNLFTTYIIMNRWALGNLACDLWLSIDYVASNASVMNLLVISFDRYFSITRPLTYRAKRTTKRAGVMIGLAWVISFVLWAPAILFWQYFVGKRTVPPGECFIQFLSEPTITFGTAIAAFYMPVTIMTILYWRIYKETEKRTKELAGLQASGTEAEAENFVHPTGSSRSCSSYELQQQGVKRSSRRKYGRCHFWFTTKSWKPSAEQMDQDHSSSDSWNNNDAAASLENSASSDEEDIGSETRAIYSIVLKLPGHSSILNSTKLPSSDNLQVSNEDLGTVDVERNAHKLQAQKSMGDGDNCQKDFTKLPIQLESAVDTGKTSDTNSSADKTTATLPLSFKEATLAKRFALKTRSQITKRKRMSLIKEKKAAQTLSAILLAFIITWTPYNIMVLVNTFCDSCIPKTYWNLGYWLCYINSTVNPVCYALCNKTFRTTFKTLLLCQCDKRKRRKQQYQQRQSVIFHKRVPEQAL
T3 sequence (P20309 whole entry): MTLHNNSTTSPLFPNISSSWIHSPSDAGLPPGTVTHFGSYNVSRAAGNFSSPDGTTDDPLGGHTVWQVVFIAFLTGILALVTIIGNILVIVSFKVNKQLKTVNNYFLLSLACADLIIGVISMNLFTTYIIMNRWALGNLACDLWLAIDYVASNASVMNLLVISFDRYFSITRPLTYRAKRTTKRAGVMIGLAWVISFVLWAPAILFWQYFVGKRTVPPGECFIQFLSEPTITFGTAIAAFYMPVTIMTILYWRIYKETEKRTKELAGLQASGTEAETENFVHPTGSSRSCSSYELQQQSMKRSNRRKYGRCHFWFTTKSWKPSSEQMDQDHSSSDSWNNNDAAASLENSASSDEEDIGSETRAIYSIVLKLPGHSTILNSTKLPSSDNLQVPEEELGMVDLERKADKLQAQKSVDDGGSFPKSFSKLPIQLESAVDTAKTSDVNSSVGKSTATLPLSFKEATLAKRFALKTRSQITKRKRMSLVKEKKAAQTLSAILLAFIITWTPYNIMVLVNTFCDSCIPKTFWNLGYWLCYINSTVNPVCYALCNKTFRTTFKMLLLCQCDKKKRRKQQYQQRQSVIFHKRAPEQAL

SMILES | ED50 (Muscarinic M3 Receptor [1]) | Kb (M2 receptor) | Methacholine Inhalation-inducing Test shift value (after 4 hrs.) (Muscarinic M3 Receptor [2]) | Ki (Muscarinic M3 receptor [3]; CHO cell membranes expressing cloned human receptor, 0.2 nM [3H]-N-methylscopolamine, pH 7.4, 2 hours, 25° C, read-out: Ki M3 (inhibitory effects on binding to muscarinic M3 receptor)) | M2/M3 (ratio of binding Ki) (Muscarinic M3 receptor [3]; selectivity ratio of Ki values, binding)
O=C(NC1CCN(Cc2ccsc2)CC1)[C@](O)(c1ccccc1)[C@@H]1CCC(F)(F)C1 [Example 11, (2R)-N-[1-(3-thienylmethyl)piperidin-4-yl]-2-[(1R)-3,3-difluorocyclopentyl]-2-hydroxy-2-phenylacetamide] | 0.032 mg/kg | 0.61 µM | 21 |  | 
Cl.Cl.Nc1cccc(CN2CCC(NC(=O)[C@](O)(c3ccccc3)[C@@H]3CCC(F)(F)C3)CC2)n1 [Example 20, (2R)-N-[1-(6-aminopyridin-2-ylmethyl)piperidin-4-yl]-2-[(1R)-3,3-difluorocyclopentyl]-2-hydroxy-2-phenylacetamide dihydrochloride] | 0.04 mg/kg | 2.1 µM | > 69 | 0.003 µM | 180
